The values that follow come from US20220144812A1, “QUINOLINE DERIVATIVES AND THEIR USE FOR THE TREATMENT OF CANCER” (Epizyme, Inc., priority 2019, published 2022).

For one test, the system named is RT4 bladder cell line. Briefly: 7-day proliferation assay, RT4. The note with it: 168 h; RT4, 7 days, CellTiter-Glo. The test is classed as cell-based. As to the method:
(§1) This example describes methods and materials for 7-day proliferation assay.
(§2) A total of 22 bladder cell lines were used (see table below). Cell lines were cultured in recommended growth media according to supplier.
(§3) Cells were in culture media at a density optimized for a 7-day culture in a final volume of 150 μL per well in white opaque 96-well plates. Cells were allowed to adhere for several hours (4-6 h) then compounds were added with HPD300 Digital Dispenser and placed into the incubator at 37° C., 5% CO2 for 7 days. After 7 days incubation, 100 μL of CellTiter-Glo® Luminescent Cell Viability Assay (Promega-G7573) reagents were added per well. After 20 minutes incubation luminescence was measured in plate reader. IC50 were calculated from a non-linear logarithmic growth curve.
(§4) IC50 values (nanomolar (nM)) are summarized in the table below, which depicts the inhibitory effect of certain compounds in bladder cell lines.
(In general: Cellular ATP, detected with luciferase, serves as a proxy for viable cell number.)

The test system of a further test is SW780 bladder cell line. Briefly: 7-day proliferation assay, SW780. The test is classed as cell-based. The note with it: Homo sapiens, 168 h; SW780, 7 days, CellTiter-Glo. The procedure: as §1, §2, §3, §4
The next test relates to 647V cells. Put plainly: High throughput proliferation (HTP) assay. The test is classed as cell-based. The conditions noted are these: Homo sapiens, 647-V, high throughput proliferation; read-out: CREBBP HTP IC50. The method, boiled down: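 Exponentially growing 647V cells in DMEM with 15% FBS were treated in triplicate with increasing compound concentrations at 37° C, 5% CO2. Viable cell number was read by CellTiter-Glo luminescence on day 7; IC50 in micromolar.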

The subject of another test is SCABER bladder cell line. Briefly: 7-day proliferation assay, SCABER. The note with it: Homo sapiens, 168 h, 7 days, CellTiter-Glo. The test is classed as cell-based. As to the method: as §1, §2, §3, §4
A further test deals with CLS439 bladder cell line. Put plainly: 7-day proliferation assay, CLS439. The test is classed as cell-based. The note with it: 168 h; CLS439, 7 days, CellTiter-Glo. As to the method: as §1, §2, §3, §4
A further test has as its system 647V bladder cell line. Put plainly: 7-day proliferation assay, 647V. The test is classed as cell-based. The note with it: Homo sapiens, 168 h, 7 days, CellTiter-Glo. The procedure: as §1, §2, §3, §4
Another test deals with T1, CREBBP (1084-1701) (Homo sapiens, UniProt Q92793).
T1 construct: measured in the following biochemical assay using CREBBP (1084-1701); purchased
Put plainly: Biochemical assay for CREBBP (1084-1701), SAMDI. The conditions noted are these: SAMDI, read-out: CREBBP Biochemistry IC50. In a few lines: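 CREBBP (1084-1701) preincubated with compound 30 min at RT, then substrate mix (biotin-H3 11-25 K14R/K23R peptide, acetyl-CoA) added for 30 min at RT. Reaction stopped with formic acid, neutralised with sodium bicarbonate. Peptide acetylation read by SAMDI mass spectrometry to derive IC50.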

A further test has as its system KMBC2 bladder cell line. Put plainly: 7-day proliferation assay, KMBC2. The test is classed as cell-based. The note with it: 168 h; KMBC2, 7 days, CellTiter-Glo. The procedure: as §1, §2, §3, §4
The next test deals with T2, EP300 (P300(1048-1664)) (Homo sapiens, UniProt Q09472).
T2 construct: P300(1048-1664)
T2 sequence (Q09472 1048-1664): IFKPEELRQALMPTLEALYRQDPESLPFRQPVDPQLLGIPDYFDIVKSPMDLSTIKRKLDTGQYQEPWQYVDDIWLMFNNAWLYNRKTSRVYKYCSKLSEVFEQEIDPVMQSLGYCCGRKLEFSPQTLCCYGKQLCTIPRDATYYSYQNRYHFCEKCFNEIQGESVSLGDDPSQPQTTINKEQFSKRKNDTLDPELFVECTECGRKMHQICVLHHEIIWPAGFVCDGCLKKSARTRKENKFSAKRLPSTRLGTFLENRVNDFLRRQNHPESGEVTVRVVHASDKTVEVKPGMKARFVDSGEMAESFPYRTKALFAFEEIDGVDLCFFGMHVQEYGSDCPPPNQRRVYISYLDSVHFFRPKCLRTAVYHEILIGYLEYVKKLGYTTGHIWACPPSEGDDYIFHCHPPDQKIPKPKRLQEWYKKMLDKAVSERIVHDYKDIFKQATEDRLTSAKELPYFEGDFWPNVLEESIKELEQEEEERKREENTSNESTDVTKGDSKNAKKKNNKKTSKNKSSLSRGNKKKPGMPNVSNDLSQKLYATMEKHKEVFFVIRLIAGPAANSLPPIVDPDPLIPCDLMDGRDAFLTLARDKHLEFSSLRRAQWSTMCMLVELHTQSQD
Briefly: Biochemical assay for EP300, SAMDI. The conditions noted are these: EP300, SAMDI; read-out: EP300 Biochemistry IC50. The source says:
The following example describes materials and methods relating to a biochemical assay for EP300. IC50 values (micromolar (μM)) are summarized in Table 1, Table 2, and Table 3 under the column labeled: “EP300 Biochemistry IC50 (micromolar).”

T1 sequence (Q92793 1084-1701): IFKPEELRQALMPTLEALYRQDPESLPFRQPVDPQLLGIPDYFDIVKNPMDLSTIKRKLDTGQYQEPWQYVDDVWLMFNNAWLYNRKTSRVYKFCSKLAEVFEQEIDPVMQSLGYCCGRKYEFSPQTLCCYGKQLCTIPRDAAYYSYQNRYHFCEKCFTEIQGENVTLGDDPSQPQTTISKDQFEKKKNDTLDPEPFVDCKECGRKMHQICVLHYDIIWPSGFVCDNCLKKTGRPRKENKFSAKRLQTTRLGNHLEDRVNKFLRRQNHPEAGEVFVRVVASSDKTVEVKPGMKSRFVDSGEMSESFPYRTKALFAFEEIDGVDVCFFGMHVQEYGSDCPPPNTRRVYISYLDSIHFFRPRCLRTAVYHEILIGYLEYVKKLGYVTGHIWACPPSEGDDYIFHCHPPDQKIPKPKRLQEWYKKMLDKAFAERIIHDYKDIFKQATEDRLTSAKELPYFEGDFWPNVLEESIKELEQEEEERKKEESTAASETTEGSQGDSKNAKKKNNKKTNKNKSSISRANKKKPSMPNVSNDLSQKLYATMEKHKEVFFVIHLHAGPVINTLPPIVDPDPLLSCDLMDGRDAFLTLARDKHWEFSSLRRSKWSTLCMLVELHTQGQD

In the case of `CCn1ncc(CN(C)C(=O)c2cc(-c3ccc(NCCNC)c(C)n3)nc3ccc(Cl)cc23)c1C` [Compound 3, 6-chloro-N-[(1-ethyl-5-methyl-1H-pyrazol-4-yl)methyl]-N-methyl-2-(6-methyl-5-{[2-(methylamino)ethyl]amino}pyridin-2-yl)quinoline-4-carboxamide], the IC50 with RT4 bladder cell line turned out to be 158 nM; in the test with SW780 bladder cell line, 228 nM; in the test on 647V cells, 27 nM; in the test with SCABER bladder cell line, 249 nM; in the test on CLS439 bladder cell line it was 619 nM; in the test on 647V bladder cell line, 127 nM. In addition, the IC50 at CREBBP (1084-1701) amounted to 21 nM; in the test with KMBC2 bladder cell line, 7640 nM; at EP300 (P300(1048-1664)), 4.4 nM.
Take `CCc1ncc(CN(C)C(=O)c2cc(-c3ccc(NCCN(C)C)c(C)n3)nc3ccc(Cl)cc23)n1C` [Compound 577]: the half-maximal inhibitory concentration (IC50) with RT4 bladder cell line came out at 199 nM; in the test on SW780 bladder cell line, 168 nM; in the test on 647V cells, 31.2 nM; in the test with SCABER bladder cell line it was 182 nM; with CLS439 bladder cell line, 461 nM; with 647V bladder cell line it was 53.5 nM. Moreover, the IC50 was determined as 42.9 nM on CREBBP (1084-1701), 896 nM with KMBC2 bladder cell line and 18.7 nM on EP300 (P300(1048-1664)).
As for `CCn1ncc(CN(C)C(=O)c2cc(-c3ccc(NC4CN(C)C4)c(C)n3)nc3ccc(Cl)cc23)c1C` [Compound 480], the concentration for half-maximal inhibition (IC50) with RT4 bladder cell line is 174 nM; in the test on SW780 bladder cell line, 126 nM; with 647V cells, 19.5 nM; in the test on SCABER bladder cell line, 172 nM; in the test on CLS439 bladder cell line, 480 nM; with 647V bladder cell line, 52 nM. In addition, the IC50 was 17.1 nM on CREBBP (1084-1701), 1810 nM in the test on KMBC2 bladder cell line and 6.5 nM on EP300 (P300(1048-1664)).
Regarding `CCc1noc(CN(C)C(=O)c2cc(-c3ccc(NCCNC)c(C)n3)nc3ccc(Cl)cc23)c1C` [Compound 537], the 50% inhibitory concentration (IC50) in the test on RT4 bladder cell line turned out to be 344 nM; in the test with SW780 bladder cell line, 322 nM; with 647V cells, 50.4 nM; in the test on SCABER bladder cell line, 252 nM; with CLS439 bladder cell line, 849 nM; in the test on 647V bladder cell line, 125 nM. The half-inhibitory concentration (IC50) on CREBBP (1084-1701) was determined as 32.8 nM; in the test with KMBC2 bladder cell line, 1600 nM; at EP300 (P300(1048-1664)), 22 nM.

As usually defined, the IC50 is the concentration needed to halve the response being measured.
